Assay results taken from patent publication US20140135359A1, “METHODS OF DESIGNING, PREPARING, AND USING NOVEL PROTONOPHORES” (priority 2012, published 2014).

Experiments:
[1] = test system: isolated rat liver mitochondria; experiment: Uncoupling activity: increase in basal (state 4) oxygen consumption by oxygraphy; format: biochemical; details: for Uncoupling (%): increase in basal (state 4) oxygen consumption as % of average ADP-stimulated (state 3) rate in vehicle-treated mitochondria
H4IIE hepatocytes = experiment: Lactate dehydrogenase (LDH) release, cellular viability; format: cell-based, murine; details: 25 μM, 16 h
Description: 2.4 Glucose-6-phosphatase activity in H4IIE hepatocytes: H4IIE murine hepatocytes (American Type Culture Collection) were cultured to confluence in 12-well plates in DMEM supplemented with 10% FBS and antibiotics. […] Effects of test compounds on cellular viability were assessed by measuring the release of lactate dehydrogenase (LDH) into the culture medium at the end of a 16 h treatment using a commercial kit (Cytotoxicity Detection Kit; Roche Diagnostics; Laval, QC) as per the manufacturer's instructions; LDH release was expressed as % of total (medium+lysate) LDH content for each well. […] Glucose-6-phosphatase (G6Pase) activity was assessed by measuring the rate of glucose formation in the presence of a non-limiting amount of glucose-6-phosphate (G6P), as done by others [39B, 40B]. Glucose production was measured with a commercial glucose assay kit (AutoKit Glucose; Wako Diagnostics; Richmond, Va.). […] Absorbance of the supernatant was measured at 505 nm at ambient temperature and glucose concentration was calculated from a standard curve performed in parallel. Control wells without exogenous G6P were included on each plate for each treatment condition and activity measured from these wells was subtracted from activity measured in the presence of exogenous G6P. G6Pase activity calculated in this way was then expressed normalized to protein content on a well-by-well basis. […]

[2] = test system: isolated rat liver mitochondria; experiment: Residual functional capacity / inhibitory effect on ADP-stimulated (state 3) oxygen consumption; format: biochemical; details: for Residual capacity (%): functional capacity (state 3 minus state 4 rate) as % of vehicle-treated mitochondria
[3] = test system: glucose-6-phosphatase (G6Pase) activity in H4IIE hepatocytes; experiment: Glucose-6-phosphatase activity in H4IIE hepatocytes; format: cell-based, murine; details: 25 μM, 16 h
Description: 2.4 Glucose-6-phosphatase activity in H4IIE hepatocytes: H4IIE murine hepatocytes (American Type Culture Collection) were cultured to confluence in 12-well plates in DMEM supplemented with 10% FBS and antibiotics. […] Effects of test compounds on cellular viability were assessed by measuring the release of lactate dehydrogenase (LDH) into the culture medium at the end of a 16 h treatment using a commercial kit (Cytotoxicity Detection Kit; Roche Diagnostics; Laval, QC) as per the manufacturer's instructions; LDH release was expressed as % of total (medium+lysate) LDH content for each well. Cells were also routinely inspected for abnormal morphology by phase-contrast microscopy at the conclusion of the treatment period. Following treatment, cells were washed in HEPES-buffered saline (10 mM HEPES, pH 7.4, 150 mM NaCl) at 37° C. Glucose-6-phosphatase (G6Pase) activity was assessed by measuring the rate of glucose formation in the presence of a non-limiting amount of glucose-6-phosphate (G6P), as done by others [39B, 40B]. Glucose production was measured with a commercial glucose assay kit (AutoKit Glucose; Wako Diagnostics; Richmond, Va.). Two hundred μl of AutoKit Glucose buffer solution diluted 1:4 in water were added to each well. Cells were then lysed by the addition of 50 μl of 0.05% Triton X-100 in similarly diluted AutoKit Glucose buffer solution. […] At 37° C., after which time 500 μl of AutoKit Glucose color reagent were added and incubation was continued for exactly 5 min. Samples were then rapidly transferred to microcentrifuge tubes. Fifty μl were removed for assay of total protein content in order to account for effects of test compounds on cellular viability or proliferation [41B]. A commercial protein assay kit based on the Bradford method was used (Protein Assay; Bio-Rad Laboratories; Hercules, Calif.). […] The remaining volume was centrifuged at 3000×g for 5 min. Absorbance of the supernatant was measured at 505 nm at ambient temperature and glucose concentration was calculated from a standard curve performed in parallel. Control wells without exogenous G6P were included on each plate for each treatment condition and activity measured from these wells was subtracted from activity measured in the presence of exogenous G6P. G6Pase activity calculated in this way was then expressed normalized to protein content on a well-by-well basis. Two independent experiments in cells of different passages were performed for each of the selected test compounds, with four to six replicates per condition per experiment.
Protocol for assay of glucose-6-phosphatase activity in H4IIE or other hepatocytes: H4IIE murine hepatocytes (American Type Culture Collection) may be cultured to confluence in 12-well plates in Dulbecco's modified Eagle's medium (DMEM) supplemented with 10% fetal bovine serum (FBS), and antibiotics. […] Effects of test compounds on cellular viability may be assessed by measuring the release of lactate dehydrogenase (LDH) into the culture medium at the end of a 16 hour treatment using a commercial kit (e.g., Cytotoxicity Detection Kit; Roche Diagnostics; Laval, QC) as per the manufacturer's instructions; LDH release may be expressed as % of total (i.e., medium+lysate) LDH content for each well. Cells may also be routinely inspected for abnormal morphology by phase-contrast microscopy at the conclusion of the treatment period. Following treatment, cells may be washed in HEPES-buffered saline (10 mM HEPES, pH 7.4, 150 mM NaCl) at 37° C. Glucose-6-phosphatase (G6Pase) activity may be assessed by measuring the rate of glucose formation in the presence of a non-limiting amount of glucose-6-phosphate (G6P). Glucose production may be measured with a commercial glucose assay kit (e.g., AutoKit Glucose; Wako Diagnostics; Richmond, Va.). Two hundred μl of AutoKit Glucose buffer solution diluted 1:4 in water may be added to each well.

In the case of `O=[N+]([O-])c1ccc(O)c([N+](=O)[O-])c1` [2,4-dinitrophenol], the uncoupling activity ([1]; 50 μM in 0.1% DMSO (FIG. 19)) is reported as “increased basal oxygen consumption above the level of ADP-stimulated consumption”, the measured uncoupling activity ([1]; 100 μM) is reported as 143% and the “slope of the linear portion of the concentration-to-activity relationship” value ([1]; dose-escalation, logarithmic scales) is reported as 0.89. The EC50 ([1]; dose-escalation, read-out: U50 (concentration at which 50% uncoupling is induced)) was roughly 10 µM, the “Uncoupling (%)” value ([1]; test conc. 25 μM) was 127 ± 11% and the “Uncoupling (%)” value ([1]; test conc. 100 μM) was 143 ± 5%. The “release of lactate dehydrogenase” value (H4IIE hepatocytes) was “comparable to that of vehicle-treated cells”, the “Inhibitory effect (%)” value ([2]; test conc. 25 μM) was 0% and the “Residual capacity (%)” value ([2]; test conc. 25 μM) was 14 ± 6%. For the same compound, the “Inhibitory effect (%)” value ([2]; test conc. 100 μM) was 0%, the “Residual capacity (%)” value ([2]; test conc. 100 μM) was 0 ± 0% and the “suppression of G6Pase activity per mg total protein” value [3] was 39%.
